Measurements reported in the Kinase Knowledgebase extract (Sharma et al. 2016).
pKi: −log10 of the molar value.

Columns and labels:
Assay in all cases: Enzyme Assay
PIK3CA (human) = PIK3CA (human) (UniProt P42336)
PIK3CB (Human) = PIK3CB (Human) (UniProt P42338)
PIK3CD (Human) = PIK3CD (Human) (UniProt O00329)
PIK3CG (human) = PIK3CG (human) (UniProt P48736)
Chain of PIK3CG (human) (P48736 whole entry, looked up): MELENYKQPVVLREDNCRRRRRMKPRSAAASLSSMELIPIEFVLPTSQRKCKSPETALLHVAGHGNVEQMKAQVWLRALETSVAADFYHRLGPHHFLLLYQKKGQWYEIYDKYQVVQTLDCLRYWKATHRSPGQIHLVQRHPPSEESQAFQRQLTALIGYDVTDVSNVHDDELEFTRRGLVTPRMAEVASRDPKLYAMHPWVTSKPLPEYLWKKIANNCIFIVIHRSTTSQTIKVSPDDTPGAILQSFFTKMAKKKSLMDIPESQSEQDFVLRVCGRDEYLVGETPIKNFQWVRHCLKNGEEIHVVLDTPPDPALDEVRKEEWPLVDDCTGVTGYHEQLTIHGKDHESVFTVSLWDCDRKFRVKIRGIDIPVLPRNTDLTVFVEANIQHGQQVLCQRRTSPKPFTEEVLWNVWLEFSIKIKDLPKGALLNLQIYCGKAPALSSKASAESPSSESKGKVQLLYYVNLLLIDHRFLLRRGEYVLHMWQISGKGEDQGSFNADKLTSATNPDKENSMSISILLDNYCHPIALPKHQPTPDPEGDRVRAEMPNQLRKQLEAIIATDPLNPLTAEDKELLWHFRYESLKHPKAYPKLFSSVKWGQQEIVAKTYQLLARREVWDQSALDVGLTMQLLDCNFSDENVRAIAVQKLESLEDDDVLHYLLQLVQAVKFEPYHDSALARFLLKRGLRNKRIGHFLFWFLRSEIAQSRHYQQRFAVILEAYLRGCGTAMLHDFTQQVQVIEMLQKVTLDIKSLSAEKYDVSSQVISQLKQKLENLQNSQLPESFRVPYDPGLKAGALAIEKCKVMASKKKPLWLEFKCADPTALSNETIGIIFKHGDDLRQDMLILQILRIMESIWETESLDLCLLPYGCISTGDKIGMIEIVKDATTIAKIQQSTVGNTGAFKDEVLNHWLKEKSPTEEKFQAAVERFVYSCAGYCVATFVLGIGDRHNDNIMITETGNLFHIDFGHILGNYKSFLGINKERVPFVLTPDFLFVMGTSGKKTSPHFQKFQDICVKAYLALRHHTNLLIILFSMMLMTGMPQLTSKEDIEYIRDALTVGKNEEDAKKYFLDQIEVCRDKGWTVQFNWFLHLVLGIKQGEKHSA

Chain of PIK3CD (Human) (O00329 whole entry, looked up): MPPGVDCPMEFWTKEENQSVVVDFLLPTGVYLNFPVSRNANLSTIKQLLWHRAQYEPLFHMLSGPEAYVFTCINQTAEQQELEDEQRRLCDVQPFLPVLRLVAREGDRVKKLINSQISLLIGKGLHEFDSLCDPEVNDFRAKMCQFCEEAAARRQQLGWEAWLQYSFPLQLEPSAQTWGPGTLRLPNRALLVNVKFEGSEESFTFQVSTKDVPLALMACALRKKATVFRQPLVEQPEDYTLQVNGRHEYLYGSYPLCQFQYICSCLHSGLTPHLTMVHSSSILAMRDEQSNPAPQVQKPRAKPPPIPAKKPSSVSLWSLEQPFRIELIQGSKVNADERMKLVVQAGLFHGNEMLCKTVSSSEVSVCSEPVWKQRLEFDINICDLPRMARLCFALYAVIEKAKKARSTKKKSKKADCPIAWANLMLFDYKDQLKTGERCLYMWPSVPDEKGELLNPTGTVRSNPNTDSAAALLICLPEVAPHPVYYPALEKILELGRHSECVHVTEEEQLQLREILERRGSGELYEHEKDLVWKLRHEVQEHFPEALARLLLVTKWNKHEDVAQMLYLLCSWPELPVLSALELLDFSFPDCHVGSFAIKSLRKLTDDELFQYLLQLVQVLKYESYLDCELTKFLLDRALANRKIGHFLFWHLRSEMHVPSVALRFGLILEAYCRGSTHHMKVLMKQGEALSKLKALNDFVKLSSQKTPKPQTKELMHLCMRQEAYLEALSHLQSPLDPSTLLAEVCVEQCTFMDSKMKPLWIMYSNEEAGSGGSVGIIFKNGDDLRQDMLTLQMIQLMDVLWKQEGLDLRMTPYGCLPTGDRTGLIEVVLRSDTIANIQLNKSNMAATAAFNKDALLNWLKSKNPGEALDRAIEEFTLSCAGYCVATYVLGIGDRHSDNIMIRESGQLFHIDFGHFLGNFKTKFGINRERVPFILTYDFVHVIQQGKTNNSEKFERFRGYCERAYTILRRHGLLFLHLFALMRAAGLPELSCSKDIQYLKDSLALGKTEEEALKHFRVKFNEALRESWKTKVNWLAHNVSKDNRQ
Chain of PIK3CB (Human) (P42338 whole entry, looked up): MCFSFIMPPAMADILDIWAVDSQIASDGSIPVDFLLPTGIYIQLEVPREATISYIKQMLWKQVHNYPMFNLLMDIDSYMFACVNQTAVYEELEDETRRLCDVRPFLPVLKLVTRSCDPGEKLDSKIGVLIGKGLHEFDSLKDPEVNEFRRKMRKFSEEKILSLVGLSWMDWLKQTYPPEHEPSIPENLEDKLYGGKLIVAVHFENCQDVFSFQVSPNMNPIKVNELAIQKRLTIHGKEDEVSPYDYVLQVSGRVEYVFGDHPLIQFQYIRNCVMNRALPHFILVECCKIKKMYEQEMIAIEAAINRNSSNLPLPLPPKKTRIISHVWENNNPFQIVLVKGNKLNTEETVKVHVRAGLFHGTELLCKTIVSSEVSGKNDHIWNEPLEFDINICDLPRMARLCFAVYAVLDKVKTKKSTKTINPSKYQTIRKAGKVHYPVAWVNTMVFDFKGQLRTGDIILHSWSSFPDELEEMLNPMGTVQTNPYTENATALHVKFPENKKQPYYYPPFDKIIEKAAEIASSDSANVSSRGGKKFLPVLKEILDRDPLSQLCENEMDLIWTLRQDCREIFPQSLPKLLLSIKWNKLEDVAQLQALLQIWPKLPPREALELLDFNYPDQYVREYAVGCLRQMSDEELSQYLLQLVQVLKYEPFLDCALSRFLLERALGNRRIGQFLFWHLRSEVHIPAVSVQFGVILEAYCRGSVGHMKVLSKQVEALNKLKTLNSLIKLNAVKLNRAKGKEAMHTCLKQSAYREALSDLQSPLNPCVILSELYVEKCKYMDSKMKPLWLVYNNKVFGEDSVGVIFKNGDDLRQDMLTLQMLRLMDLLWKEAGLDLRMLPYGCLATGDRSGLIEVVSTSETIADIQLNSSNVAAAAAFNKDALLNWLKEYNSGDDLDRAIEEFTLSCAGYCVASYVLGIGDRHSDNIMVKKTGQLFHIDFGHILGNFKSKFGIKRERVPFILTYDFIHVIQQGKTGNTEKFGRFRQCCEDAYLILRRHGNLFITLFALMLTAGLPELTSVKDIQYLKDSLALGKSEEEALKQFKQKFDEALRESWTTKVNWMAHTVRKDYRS
Chain of PIK3CA (human) (P42336 whole entry, looked up): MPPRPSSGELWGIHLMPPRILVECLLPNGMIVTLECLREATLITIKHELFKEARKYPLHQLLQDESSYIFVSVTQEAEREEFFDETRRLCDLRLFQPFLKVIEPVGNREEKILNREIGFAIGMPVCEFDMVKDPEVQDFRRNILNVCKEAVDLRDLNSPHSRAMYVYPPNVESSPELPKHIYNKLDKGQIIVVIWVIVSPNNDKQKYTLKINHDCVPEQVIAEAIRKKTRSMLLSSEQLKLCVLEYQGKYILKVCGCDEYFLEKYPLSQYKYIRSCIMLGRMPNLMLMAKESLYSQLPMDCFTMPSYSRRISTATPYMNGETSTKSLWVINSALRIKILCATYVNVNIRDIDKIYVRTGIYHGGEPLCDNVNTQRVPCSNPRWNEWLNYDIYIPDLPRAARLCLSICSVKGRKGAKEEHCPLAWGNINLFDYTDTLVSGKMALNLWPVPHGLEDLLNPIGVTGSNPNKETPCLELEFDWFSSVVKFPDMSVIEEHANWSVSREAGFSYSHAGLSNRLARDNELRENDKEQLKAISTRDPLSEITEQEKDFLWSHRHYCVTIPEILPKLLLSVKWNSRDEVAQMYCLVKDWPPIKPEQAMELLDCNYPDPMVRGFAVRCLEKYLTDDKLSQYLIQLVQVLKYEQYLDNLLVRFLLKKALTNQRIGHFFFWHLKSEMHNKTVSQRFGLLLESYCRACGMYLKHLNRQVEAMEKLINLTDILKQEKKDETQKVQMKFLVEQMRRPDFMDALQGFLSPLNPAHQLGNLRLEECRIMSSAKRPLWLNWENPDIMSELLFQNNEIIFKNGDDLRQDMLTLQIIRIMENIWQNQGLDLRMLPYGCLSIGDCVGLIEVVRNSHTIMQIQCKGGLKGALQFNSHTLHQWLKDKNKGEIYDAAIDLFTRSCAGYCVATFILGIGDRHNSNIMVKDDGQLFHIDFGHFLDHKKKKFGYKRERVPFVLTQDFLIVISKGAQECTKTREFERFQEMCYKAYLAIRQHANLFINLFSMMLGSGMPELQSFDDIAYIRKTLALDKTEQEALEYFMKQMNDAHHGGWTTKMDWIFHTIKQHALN

Row | pKi (PIK3CA (human)) | pKi (PIK3CB (Human)) | pKi (PIK3CD (Human)) | pKi (PIK3CG (human)) | Structure (SMILES)
1 | 9.00 | 7.72 | 8.05 | 8.30 | CC1(C)COC1c1cc2nc(-c3cnc(N)nc3)nc(N3CCOCC3)c2s1 (centres undefined)
2 | – | 7.68 | 8.70 | 8.40 | COC(C)(C)c1cc2nc(-c3cnc(N)nc3)nc(N3CCOCC3)c2s1
3 | – | 7.57 | 8.15 | 8.15 | COC1(c2sc3c(N4CCOCC4)nc(-c4cnc(N)nc4)nc3c2C)COC1
4 | 9.00 | 7.85 | 8.52 | 8.52 | CC1(C)OCCc2c1sc1c(N3CCOCC3)nc(-c3cnc(N)nc3)nc21
